This assay concerns the target T1, human orexin type 2 receptor (Homo sapiens, UniProt O43614).
T1 construct: expressed in transfected cells
T1 sequence (O43614 1-444): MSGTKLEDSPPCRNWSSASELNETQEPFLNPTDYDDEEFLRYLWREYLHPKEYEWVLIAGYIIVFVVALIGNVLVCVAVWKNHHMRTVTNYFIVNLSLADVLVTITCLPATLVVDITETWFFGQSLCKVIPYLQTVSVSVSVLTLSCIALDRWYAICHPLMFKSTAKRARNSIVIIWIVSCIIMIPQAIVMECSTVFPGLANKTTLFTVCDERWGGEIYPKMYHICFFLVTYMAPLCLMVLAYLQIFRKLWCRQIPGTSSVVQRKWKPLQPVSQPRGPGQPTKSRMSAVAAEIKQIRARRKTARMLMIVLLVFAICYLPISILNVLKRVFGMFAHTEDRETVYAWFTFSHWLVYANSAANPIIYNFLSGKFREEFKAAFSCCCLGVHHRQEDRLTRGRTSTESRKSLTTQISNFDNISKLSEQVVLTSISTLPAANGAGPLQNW
Kind of assay: Measurement of orexin type 2 receptor agonist activity (calcium fluorescence, Fluo-4 AM, FDSS) in CHO cells forcibly expressing human OX2 receptor. The following applies: test compound 3 μM, DMSO = 0%, orexin A (human) 10 nM = 100%. Type of assay: cell-based. From the text: To obtain a cell clone stably expressing human orexin type 2 receptor, human orexin type 2 receptor cDNA was inserted into pcDNA3.1(+) plasmid vector (Invitrogen), and a plasmid DNA for expression of human orexin type 2 receptor (pcDNA3.1(+)/hOX2R) was cloned. The plasmid DNA was introduced into CHO-dhfr cell by an electroporation method, and human orexin type 2 receptor expressing clone cells were obtained by limiting dilution method by using G418 drug resistance as a selection marker.
CHO cells forcibly expressing human OX2 receptor were seeded in each well of 384 well black transparent bottom plate (BD Falcon) at 7,500 cells/well, and cultured for one day in a 5% CO2 incubator at 37° C. After removal of the medium in the cell plate, assay buffer A containing a calcium indicator (HBSS (Thermo Fisher Scientific), 20 mM HEPES (Thermo Fisher Scientific), 0.1% BSA (Sigma-Aldrich), 2.5 μg/mL Fluo-4 AM (DOJINDO Chemical), 0.08% Pluronic F127 (DOJINDO Chemical), 1.25 mM probenecid (DOJINDO Chemical)) was added at 30 μL/well. The plate was stood for 30 min in a 5% CO2 incubator at 37° C., and further stood at room temperature for 30 min. A test compound prepared by diluting with assay buffer B (HBSS, 20 mM HEPES, 0.1% BSA) was added at 10 μL/well, and the fluorescence value was measured by FDSSpCELL (Hamamatsu Photonics K.K.) every one sec for 1 min, and thereafter every two sec for 1 min 40 sec. The activity (%) of the test compound was calculated assuming that variation in the fluorescence value when DMSO was added instead of the test compound was 0%, and variation in the fluorescence value when orexin A (human) (PEPTIDE INSTITUTE, INC.) was added at the final concentration of 10 nM was 100%.

SMILES strings stand for the structures.

In the case of `CCn1ccc2c(c1=O)[C@@H](Cc1cccc(-c3ccccc3)c1)[C@@H](NS(C)(=O)=O)CC2` (racemic) [Example 47, rac-N-{(7S,8R)-8-[([1,1′-biphenyl]-3-yl)methyl]-2-ethyl-1-oxo-1,2,5,6,7,8-hexahydroisoquinolin-7-yl}methanesulfonamide], the “0X2R agonist activity (3 μM, %)” value was 96%.
Next, `CC(C)n1ccc2c(c1=O)[C@@H](Cc1cccc(-c3ccccc3)c1)[C@@H](NS(C)(=O)=O)CC2` (racemic) [Example 52, rac-N-[(7S,8R)-8-[([1,1′-biphenyl]-3-yl)methyl]-1-oxo-2-(propan-2-yl)-1,2,5,6,7,8-hexahydroisoquinolin-7-yl]methane sulfonamide]: 90%.
Next, `Cc1ccc2n(c1=O)[C@@H](Cc1csc(-c3ccccc3)n1)[C@@H](NS(C)(=O)=O)CC2` (racemic) [Example 58, rac-N-{(3S,4S)-7-methyl-6-oxo-4-[(2-phenyl-1,3-thiazol-4-yl)methyl]-1,3,4,6-tetrahydro-2H-quinolizin-3-yl}methanesulfonamide]: 92%.
For `Cc1ccc2n(c1=O)[C@@H](Cc1cccc(-c3cccc(F)c3)n1)[C@@H](NS(C)(=O)=O)CC2` (racemic) [Example 59, rac-N-[(3S,4S)-4-{[6-(3-fluorophenyl)pyridin-2-yl]methyl}-7-methyl-6-oxo-1,3,4,6-tetrahydro-2H-quinolizin-3-yl]methanesulfonamide] the value was 86%; for `Cc1ccc2n(c1=O)[C@@H](Cc1cccc(-c3cc(F)cc(F)c3)n1)[C@@H](NS(C)(=O)=O)CC2` (racemic) [Example 60, rac-N-[(3S,4S)-4-{[6-(3,5-difluorophenyl)pyridin-2-yl]methyl}-7-methyl-6-oxo-1,3,4,6-tetrahydro-2H-quinolizin-3-yl]methanesulfonamide], 83%; for `CS(=O)(=O)N[C@H]1CCc2c(Cl)nc(Cl)c(=O)n2[C@H]1Cc1cccc(-c2ccccc2)c1` (racemic) [Example 61, rac-N-{(6S,7S)-6-[([1,1′-biphenyl]-3-yl)methyl]-1,3-dichloro-4-oxo-6,7,8,9-tetrahydro-4H-pyrido[1,2-a]pyrazin-7-yl}methanesulfonamide], 51%.
On to `CN1CC[C@@H]2CC[C@H](NS(C)(=O)=O)[C@H](Cc3cccc(-c4ccccc4)c3)N2C1=O` (racemic) [Example 62, rac-N-{(4aS,7S,8S)-8-[([1,1′-biphenyl]-3-yl)methyl]-2-methyl-1-oxooctahydro-1H-pyrido[1,2-c]pyrimidin-7-yl}methanesulfonamide], for which the “0X2R agonist activity (3 μM, %)” value was 92%.
For `COC1(C(=O)N[C@H]2CCc3ncn(C(C)C)c(=O)c3[C@H]2Cc2cccc(-c3ccccc3)c2)CC1` (racemic) [Example 63, rac-N-[(5R,6S)-5-[([1,1′-biphenyl]-3-yl)methyl]-4-oxo-3-(propan-2-yl)-3,4,5,6,7,8-hexahydroquinazolin-6-yl]-1-methoxycyclopropane-1-carboxamide] the value was 92%; for `Cc1ccc2n(c1=O)[C@@H](Cc1csc(-c3cccc(F)c3)n1)[C@@H](NS(C)(=O)=O)CC2` (racemic) [Example 64, rac-N-[(3S,4S)-4-{[2-(3-fluorophenyl)-1,3-thiazol-4-yl]methyl}-7-methyl-6-oxo-1,3,4,6-tetrahydro-2H-quinolizin-3-yl]methanesulfonamide], 100%; for `CC(C)n1cnc2c(c1=O)[C@@H](Cc1cccc(-c3cc(F)cc(F)c3)c1)[C@@H](NS(C)(=O)=O)CC2` (racemic) [Example 67, rac-N-[(5R,6S)-5-[(3′,5′-difluoro[1,1′-biphenyl]-3-yl)methyl]-4-oxo-3-(propan-2-yl)-3,4,5,6,7,8-hexahydroquinazolin-6-yl]methanesulfonamide], 105%.
Next, `Cc1nc2c(c(=O)n1C(C)C)[C@@H](Cc1cccc(-c3ccccc3)c1)[C@@H](NS(C)(=O)=O)CC2` (racemic) [Example 70, rac-N-{(5R,6S)-5-[([1,1′-biphenyl]-3-yl)methyl]-2-methyl-4-oxo-3-(propan-2-yl)-3,4,5,6,7,8-hexahydroquinazolin-6-yl}methanesulfonamide]: 97%.
Next, `CCn1c(C)nc2c(c1=O)C(Cc1cccc(-c3ccccc3)c1)C(NS(C)(=O)=O)CC2` (racemic) [Example 71, rac-N-{(5R,6S)-5-[([1,1′-biphenyl]-3-methyl]-3-ethyl-2-methyl-4-oxo-3,4,5,6,7,8-hexahydroquinazolin-6-yl}methanesulfonamide]: 90%.
Turning to `CC(C)n1ccc2c(c1=O)[C@@H](Cc1cccc(-c3cccc(F)c3)c1)[C@@H](NS(C)(=O)=O)CC2` (racemic) [Example 74, rac-N-[(7S,8R)-8-[(3′-fluoro[1,1′-biphenyl]-3-yl)methyl]-1-oxo-2-(propan-2-yl)-1,2,5,6,7,8-hexahydroisoquinolin-7-yl]methanesulfonamide], the “0X2R agonist activity (3 μM, %)” value worked out at 91%.
Next, `CCn1c(C)nc2c(c1=O)C(Cc1cccc(-c3cc(F)cc(F)c3)c1)C(NS(C)(=O)=O)CC2` (racemic) [Example 75]: 92%; `CCn1c(C)nc2c(c1=O)[C@@H](Cc1cccc(-c3cccc(C)c3)c1)[C@@H](NS(C)(=O)=O)CC2` (racemic) [Example 78, rac-N-{(5R,6S)-3-ethyl-2-methyl-5-[(3′-methyl[1,1′-biphenyl]-3-yl)methyl]-4-oxo-3,4,5,6,7,8-hexahydroquinazolin-6-yl}methanesulfonamide]: 100%.
`CCn1ccc2c(c1=O)[C@@H](Cc1cccc(-c3cccc(F)c3)c1)[C@@H](NS(C)(=O)=O)CC2` (racemic) [Example 79, rac-N-{(7S,8R)-2-ethyl-8-[(3′-fluoro[1,1′-biphenyl]-3-yl)methyl]-1-oxo-1,2,5,6,7,8-hexahydroisoquinolin-7-yl}methanesulfonamide]: the “0X2R agonist activity (3 μM, %)” value is on record as 102%.
In the case of `CCS(=O)(=O)N[C@H]1CCc2ncn(C(C)C)c(=O)c2[C@H]1Cc1cccc(-c2ccccc2)c1` (racemic) [Example 80, rac-N-[(5R,6S)-5-[([1,1′-biphenyl]-3-yl)methyl]-4-oxo-3-(propan-2-yl)-3,4,5,6,7,8-hexahydroquinazolin-6-yl]ethanesulfonamide], the “0X2R agonist activity (3 μM, %)” value stood at 93%.
Consider `CCS(=O)(=O)N[C@H]1CCc2ncn(C(C)C)c(=O)c2[C@H]1Cc1cccc(-c2cccc(F)c2)c1` (racemic) [Example 81, rac-N-[(5R,6S)-5-[(3′-fluoro[1,1′-biphenyl]-3-yl)methyl]-4-oxo-3-(propan-2-yl)-3,4,5,6,7,8-hexahydroquinazolin-6-yl]ethanesulfonamide], for which the “0X2R agonist activity (3 μM, %)” value worked out at 96%.
For `CCS(=O)(=O)N[C@H]1CCc2ncn(C(C)C)c(=O)c2[C@H]1Cc1cccc(-c2cccc(C)c2F)c1` (racemic) [Example 83, rac-N-[(5R,6S)-5-[(2′-fluoro-3′-methyl[1,1′-biphenyl]-3-yl)methyl]-4-oxo-3-(propan-2-yl)-3,4,5,6,7,8-hexahydroquinazolin-6-yl]ethanesulfonamide] the value was 100%.
For `CCS(=O)(=O)N[C@H]1CCc2ncn(C(C)C)c(=O)c2[C@H]1Cc1cccc(-c2cccc(F)c2F)c1` (racemic) [Example 85, rac-N-[(5R,6S)-5-[(2′,3′-difluoro[1,1′-biphenyl]-3-yl)methyl]-4-oxo-3-(propan-2-yl)-3,4,5,6,7,8-hexahydroquinazolin-6-yl]ethanesulfonamide] the value was 98%; for `CCn1ccc2c(c1=O)[C@@H](Cc1cccc(-c3ccccc3)c1F)[C@@H](NS(C)(=O)=O)CC2` (racemic) [Example 87, rac-N-{(7S,8R)-2-ethyl-8-[(2-fluoro[1,1′-biphenyl]-3-yl)methyl]-1-oxo-1,2,5,6,7,8-hexahydroisoquinolin-7-yl}methanesulfonamide], 97%; for `CCn1ccc2c(c1=O)[C@@H](Cc1cccc(-c3cccc(C)c3)c1F)[C@@H](NS(C)(=O)=O)CC2` (racemic) [Example 93, rac-N-{(7S,8R)-2-ethyl-8-[(2-fluoro-3′-methyl[1,1′-biphenyl]-3-yl)methyl]-1-oxo-1,2,5,6,7,8-hexahydroisoquinolin-7-yl}methanesulfonamide], 101%.

(Values after patent publication US12071434B2, “Heterocyclic compound” (Takeda Pharmaceutical Company Limited, priority 2018, dated 2024).)
